Laboratory results published in PubChem BioAssay (NCI).
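48-hour exposure; five concentrations; linearly interpolated endpoints. GI50 = concentration required for 50% inhibition of growth. TGI marks complete inhibition of growth.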 Where a SMILES comes first, the peptide text is derived from it. [ ]: non-standard residue; d: D form.

Legend:
Assay in all cases: inhibition of tumour cell growth, NCI panel, 48 h; in the data active means GI50 below about 0.43 µM; inactive means the rest
EKVX NSCLC = test system: EKVX NSCLC
HT29 colon = test system: HT29 colon
NCI-H23 lung = test system: NCI-H23 lung
OVCAR-3 ovarian = test system: OVCAR-3 ovarian
OVCAR-4 ovarian = test system: OVCAR-4 ovarian
OVCAR-8 ovarian = test system: OVCAR-8 ovarian
SF-539 CNS = test system: SF-539 CNS
SK-MEL-2 melanoma = test system: SK-MEL-2 melanoma
SK-MEL-5 melanoma = test system: SK-MEL-5 melanoma
SK-MEL-28 melanoma = test system: SK-MEL-28 melanoma

c1ccc(-c2cc3n4c(-c5ccccc5)nn(-c5ccccc5)c4cnc-3n2)cc1
> 50 µM: TGI (EKVX NSCLC) | TGI (HT29 colon) | TGI (NCI-H23 lung) | TGI (OVCAR-3 ovarian) | TGI (OVCAR-4 ovarian) | TGI (OVCAR-8 ovarian) | TGI (SF-539 CNS) | TGI (SK-MEL-2 melanoma) | TGI (SK-MEL-5 melanoma)
inactive: GI50 (EKVX NSCLC) 17 µM | GI50 (HT29 colon) > 50 µM | GI50 (NCI-H23 lung) > 50 µM | GI50 (OVCAR-3 ovarian) > 50 µM | GI50 (OVCAR-4 ovarian) 31.3 µM | GI50 (OVCAR-8 ovarian) > 50 µM | GI50 (SF-539 CNS) 13.7 µM | GI50 (SK-MEL-2 melanoma) > 50 µM | GI50 (SK-MEL-5 melanoma) > 50 µM

C#C[C@@H](CCCC)OC(=O)N[C@H](C)c1ccccc1
> 100 µM: TGI (EKVX NSCLC) | TGI (HT29 colon) | TGI (OVCAR-3 ovarian) | TGI (OVCAR-4 ovarian) | TGI (OVCAR-8 ovarian) | TGI (SK-MEL-28 melanoma)
53.1 µM: TGI (SK-MEL-2 melanoma)
46.5 µM: TGI (SK-MEL-5 melanoma)

COC1CC(n2cc(F)c(N)nc2=O)OC1CO (centres undefined)
> 100 µM: TGI (EKVX NSCLC) | TGI (HT29 colon) | TGI (NCI-H23 lung) | TGI (OVCAR-3 ovarian) | TGI (OVCAR-4 ovarian) | TGI (OVCAR-8 ovarian) | TGI (SK-MEL-2 melanoma) | TGI (SK-MEL-28 melanoma) | TGI (SK-MEL-5 melanoma)

N#C/C(=C1\OC(N)=C(c2ccc(Cl)cc2)C1=O)c1ccc(Cl)cc1
26.3 µM: TGI (OVCAR-8 ovarian)
27.1 µM: TGI (NCI-H23 lung)
39.5 µM: TGI (HT29 colon)
32 µM: TGI (OVCAR-4 ovarian)
67.7 µM: TGI (SK-MEL-28 melanoma)
27.6 µM: TGI (SF-539 CNS)
28 µM: TGI (OVCAR-3 ovarian)
32.4 µM: TGI (EKVX NSCLC)

CC(=O)/C(=C/N1CCN(C(=O)c2ccco2)C1=S)C(=O)c1ccccc1
inactive: GI50 (EKVX NSCLC) 7.9 µM | GI50 (HT29 colon) 16.9 µM | GI50 (OVCAR-3 ovarian) 17.2 µM | GI50 (OVCAR-4 ovarian) 20.1 µM | GI50 (OVCAR-8 ovarian) 8.75 µM | GI50 (SF-539 CNS) 1.09 µM | GI50 (SK-MEL-28 melanoma) 28 µM | GI50 (SK-MEL-5 melanoma) 8.12 µM
> 50 µM: TGI (HT29 colon) | TGI (OVCAR-3 ovarian) | TGI (SK-MEL-28 melanoma)
3.56 µM: TGI (SF-539 CNS)
21.3 µM: TGI (EKVX NSCLC)
37.4 µM: TGI (OVCAR-4 ovarian)
24.3 µM: TGI (OVCAR-8 ovarian)
15.4 µM: TGI (SK-MEL-5 melanoma)

CC1=C2C3OC(=O)C(C)C3C(O)C[C@@]2(C)C(=O)CC1 (some centres undefined)
> 100 µM: TGI (EKVX NSCLC) | TGI (HT29 colon) | TGI (OVCAR-3 ovarian) | TGI (OVCAR-4 ovarian) | TGI (OVCAR-8 ovarian) | TGI (SF-539 CNS) | TGI (SK-MEL-28 melanoma) | TGI (SK-MEL-5 melanoma)

C/C(=N\Nc1n[nH]c(=S)n1N)c1c(O)cc(C)oc1=O
> 100 µM: TGI (EKVX NSCLC) | TGI (HT29 colon) | TGI (NCI-H23 lung) | TGI (OVCAR-4 ovarian) | TGI (OVCAR-8 ovarian) | TGI (SF-539 CNS) | TGI (SK-MEL-2 melanoma) | TGI (SK-MEL-28 melanoma)

CC(=O)OC1=C(CC(C)(C)C)C(=O)c2ccccc2C1=O
> 100 µM: TGI (EKVX NSCLC) | TGI (HT29 colon) | TGI (OVCAR-4 ovarian) | TGI (OVCAR-8 ovarian) | TGI (SF-539 CNS) | TGI (SK-MEL-28 melanoma)
99.4 µM: TGI (SK-MEL-2 melanoma)
51.3 µM: TGI (SK-MEL-5 melanoma)
38.8 µM: TGI (NCI-H23 lung)

CCSc1nc(N)c2cnn(CC)c2n1
inactive: GI50 (EKVX NSCLC) 7.79 µM | GI50 (NCI-H23 lung) 10.3 µM | GI50 (OVCAR-3 ovarian) 4.59 µM | GI50 (OVCAR-4 ovarian) 49 µM | GI50 (OVCAR-8 ovarian) 3.21 µM | GI50 (SF-539 CNS) 6.67 µM | GI50 (SK-MEL-2 melanoma) 2.12 µM | GI50 (SK-MEL-28 melanoma) 20.4 µM | GI50 (SK-MEL-5 melanoma) 2.58 µM
22 µM: TGI (NCI-H23 lung)
5.88 µM: TGI (SK-MEL-2 melanoma)
> 100 µM: TGI (OVCAR-4 ovarian) | TGI (SK-MEL-28 melanoma)
34.1 µM: TGI (EKVX NSCLC)
27.3 µM: TGI (SF-539 CNS)
8.05 µM: TGI (SK-MEL-5 melanoma)
19.4 µM: TGI (OVCAR-8 ovarian)
42.6 µM: TGI (OVCAR-3 ovarian)

CSCC[C@H](NC(=O)[C@@H](N)CC(N)=O)C(=O)N[C@@H](Cc1c[nH]c2ccccc12)C(=O)N[C@@H](CCC(N)=O)C(=O)N[C@@H](CCC(=O)O)C(=O)N[C@H](C(=O)NCC(=O)N[C@@H](CCCCN)C(=O)N[C@H](C)C(=O)O)C(C)C (H-NMWQEVGK[dA]-OH)
> 100 µM: TGI (EKVX NSCLC) | TGI (HT29 colon) | TGI (NCI-H23 lung) | TGI (OVCAR-3 ovarian) | TGI (OVCAR-4 ovarian) | TGI (OVCAR-8 ovarian) | TGI (SF-539 CNS) | TGI (SK-MEL-28 melanoma) | TGI (SK-MEL-5 melanoma)

COc1cc(CCc2ccncc2)cc(OC)c1OC
> 100 µM: TGI (EKVX NSCLC) | TGI (HT29 colon) | TGI (NCI-H23 lung) | TGI (OVCAR-3 ovarian) | TGI (OVCAR-4 ovarian) | TGI (OVCAR-8 ovarian) | TGI (SF-539 CNS) | TGI (SK-MEL-28 melanoma) | TGI (SK-MEL-5 melanoma)

O=C(CCc1cc(-c2ccc(F)cc2)n[nH]1)N(Cc1ccccc1)Cc1ccccc1
> 100 µM: TGI (EKVX NSCLC) | TGI (HT29 colon) | TGI (NCI-H23 lung) | TGI (OVCAR-3 ovarian) | TGI (OVCAR-8 ovarian) | TGI (SF-539 CNS) | TGI (SK-MEL-2 melanoma) | TGI (SK-MEL-28 melanoma) | TGI (SK-MEL-5 melanoma)

C=CCO[C@H]1CC[C@@]2(C)C(CC[C@]3(C)C2CC=C2[C@@H]4[C@@H](C)C(C)CC[C@]4(C(=O)O)CCC23C)C1(C)C (some centres undefined)
31.6 µM: TGI (HT29 colon)
39.3 µM: TGI (OVCAR-4 ovarian)
28.9 µM: TGI (NCI-H23 lung)
31.8 µM: TGI (SK-MEL-5 melanoma)
29.8 µM: TGI (OVCAR-3 ovarian)
34.1 µM: TGI (SF-539 CNS)
36.6 µM: TGI (OVCAR-8 ovarian)
38.1 µM: TGI (EKVX NSCLC)
29.5 µM: TGI (SK-MEL-28 melanoma)

C=CCCC(=O)CC(=O)OCc1ccccc1
> 100 µM: TGI (EKVX NSCLC) | TGI (HT29 colon) | TGI (NCI-H23 lung) | TGI (OVCAR-3 ovarian) | TGI (OVCAR-4 ovarian) | TGI (OVCAR-8 ovarian) | TGI (SF-539 CNS) | TGI (SK-MEL-2 melanoma) | TGI (SK-MEL-5 melanoma)

CN1CCN(c2nc3cc(F)ccc3n3cccc23)CC1
> 100 µM: TGI (EKVX NSCLC) | TGI (NCI-H23 lung) | TGI (OVCAR-3 ovarian) | TGI (OVCAR-4 ovarian) | TGI (OVCAR-8 ovarian)
79.2 µM: TGI (SF-539 CNS)
51.8 µM: TGI (SK-MEL-28 melanoma)
38 µM: TGI (SK-MEL-5 melanoma)
87.6 µM: TGI (HT29 colon)

COC(=N)CCCl
> 100 µM: TGI (EKVX NSCLC) | TGI (HT29 colon) | TGI (NCI-H23 lung) | TGI (OVCAR-3 ovarian) | TGI (OVCAR-4 ovarian) | TGI (OVCAR-8 ovarian) | TGI (SF-539 CNS) | TGI (SK-MEL-28 melanoma) | TGI (SK-MEL-5 melanoma)

CCCCCC/C(CC(=O)CCC(=O)NCCc1ccccc1)=N\Nc1ccc([N+](=O)[O-])cc1[N+](=O)[O-]
> 100 µM: TGI (EKVX NSCLC) | TGI (HT29 colon) | TGI (NCI-H23 lung) | TGI (OVCAR-3 ovarian) | TGI (OVCAR-8 ovarian) | TGI (SF-539 CNS) | TGI (SK-MEL-2 melanoma) | TGI (SK-MEL-28 melanoma) | TGI (SK-MEL-5 melanoma)

N#CC(C#N)C(c1ccccc1)c1ccccc1
> 100 µM: TGI (OVCAR-3 ovarian) | TGI (OVCAR-4 ovarian) | TGI (OVCAR-8 ovarian) | TGI (SF-539 CNS) | TGI (SK-MEL-2 melanoma) | TGI (SK-MEL-28 melanoma) | TGI (SK-MEL-5 melanoma)

O=C(N/N=C/c1ccc(N(CCCl)CCCl)cc1)c1ccc(C(=O)N/N=C/c2ccc(N(CCCl)CCCl)cc2)cc1
inactive: GI50 (HT29 colon) 0.801 µM | GI50 (OVCAR-3 ovarian) 19 µM | GI50 (OVCAR-4 ovarian) 47.9 µM | GI50 (OVCAR-8 ovarian) 12.9 µM | GI50 (SF-539 CNS) 0.612 µM | GI50 (SK-MEL-2 melanoma) 2.13 µM | GI50 (SK-MEL-28 melanoma) > 100 µM | GI50 (SK-MEL-5 melanoma) 18.1 µM
> 100 µM: TGI (HT29 colon) | TGI (OVCAR-3 ovarian) | TGI (OVCAR-4 ovarian) | TGI (OVCAR-8 ovarian) | TGI (SK-MEL-28 melanoma) | TGI (SK-MEL-5 melanoma)
33.3 µM: TGI (SK-MEL-2 melanoma)
47.3 µM: TGI (SF-539 CNS)

Cc1nc(-n2nc(-c3ccccc3)cc2-c2ccccc2)sc1C(=O)CC(=O)C(=O)Nc1ccc(O)cc1
> 100 µM: TGI (EKVX NSCLC) | TGI (HT29 colon) | TGI (NCI-H23 lung) | TGI (OVCAR-3 ovarian) | TGI (OVCAR-4 ovarian) | TGI (OVCAR-8 ovarian) | TGI (SF-539 CNS) | TGI (SK-MEL-2 melanoma)

CN(C)C(=S)/N=c1\ss/c(=N\S(=O)(=O)c2ccccc2)n1C
> 100 µM: TGI (EKVX NSCLC) | TGI (HT29 colon) | TGI (NCI-H23 lung) | TGI (OVCAR-4 ovarian) | TGI (OVCAR-8 ovarian) | TGI (SF-539 CNS) | TGI (SK-MEL-2 melanoma) | TGI (SK-MEL-28 melanoma) | TGI (SK-MEL-5 melanoma)
